pEC50: −log10 of the molar value.
What was measured:
Type in all cases: cell-based
[1] = system: Wnt activity (Sp5-Luc reporter, TCF/LEF binding sites) in SW480 colon carcinoma cells; assay: Wnt activity screening assay: Sp5-Luc reporter gene assay in SW480 cells; settings: Homo sapiens; for pEC50: Sp5-Luc reporter, SW480 cells, overnight incubation; for inhibition at 10 µM: SW480, read-out: percent inhibition at 10 μM
Excerpt: The screening assay for Wnt activity is described as follows. Reporter cell lines can be generated by stably transducing cancer cell lines (e.g., colon cancer) or primary cells (e.g., IEC-6 intestinal cells) with a lentiviral construct that includes a Wnt-responsive promoter driving expression of the firefly luciferase gene.
SW480 colon carcinoma cells were transduced with a lentiviral vector expressing luciferase with a human Sp5 promoter consisting of a sequence of eight TCF/LEF binding sites. SW480 cells stably expressing the Sp5-Luc reporter gene and a hygromycin resistance gene were selected by treatment with 150 μg/mL of hygromycin for 7 days. These stably transduced SW480 cells were expanded in cell culture and used for all further screening activities. […] For Sp5-Luc reporter gene assays, the cells were plated at 4,000 cells/well in 384-well plates with medium containing 1% fetal bovine serum and incubated overnight at 37° C. and 5% CO2. Following incubation, 20 μl of BrightGlo luminescence reagent (Promega) was added to each well of the 384-well assay plates. The plates were placed on an orbital shaker for 2 min and then luminescence was quantified using the Envision (Perkin Elmer) plate reader. Readings were normalized to DMSO only treated cells, and normalized activities were utilized for EC50 calculations using the dose-response log (inhibitor) vs. response variable slope (four parameters) nonlinear regression feature available in GraphPad Prism 5.0 (or Dotmatics).

SW480 colon cancer cells = assay: Cell viability assay (CellTiter-Blue) in SW480 colon cancer cells; settings: Homo sapiens; for pEC50: 96 h, SW480 cell viability, four days, CellTiter-Blue; for inhibition at 10 µM: SW480, read-out: percent inhibition at 10 μM
Experimental: Representative compounds were screened using the following assay procedure to assess the effect on cell viability as described below.
Approximately 2×10^3 SW480 colon cancer cells were seeded into each well and allowed to incubate in the presence or absence of compound for four days at 37° C./5% CO2. Eight replicates of DMSO-treated cells served as controls and cells treated with compound were performed in duplicate.
After incubation, 20 μL of CellTiter-Blue (Promega) was added to each well allowed to incubate for approximately 3 hours. This reagent was a buffered solution which contains resazurin, metabolically active cells were able to reduce rezarurin (blue) into resorufin (pink) which was highly fluorescent. This measured fluorescence was used as a readout for cell viability.

[2] = system: LL29 cells (primary human fibroblasts derived from IPF patients), α-smooth muscle actin; assay: Inhibition of the fibrotic process: αSMA staining in TGF-β1 treated primary human fibroblasts from IPF patients (LL29 cells); settings: Fibroblast; for pEC50: 96 h, LL29 cells, TGF-β1 20 ng/mL, 4 days, % αSMA positive cells; for inhibition at 10 µM: read-out: percent inhibition at 10 μM
Experimental: Representative compounds were screened using primary human fibroblasts (derived from IPF patients) treated with TGF-β1 to determine their ability to inhibit the fibrotic process.
LL29 cells are plated at 1,500 cells/well in 80 μL/well F12 medium supplemented with 1% Fetal Bovine Serum. […] Wells treated with TGF-β1 and containing DMSO were used as controls. […] Following incubation for 4 days, SYTOX green nucleic acid stain (Life Technologies [Thermo Fisher Scientific]) was added to the wells at a final concentration of 1 μM and incubated at room temperature for 30 min.

[3] = system: primary human mesenchymal stem cells (hMSCs); assay: Induction of chondrogenesis in primary human mesenchymal stem cells (chondrogenic nodules, Rhodamine B / Nile Red); settings: 6 days; for EC50: concentration required to induce 50% levels of chondrogenesis vs TGF-β3, read-out: Conc (nM) of 50% TGF-β3 activity; for Emax: relative to TGF-β3 (10 ng/mL) positive control, read-out: Max. Activity as % TGF-β3 activity
Excerpt: Representative compounds were screened using primary human mesenchymal stem cells (hMSCs) to determine their ability to induce chondrogenesis (process by which cartilage is developed).
Human Mesenchymal Stem Cell Culture: Primary human mesenchymal stem cells (hMSCs) were purchased from Lonza (Walkersville, Md.) and expanded in Mesenchymal Stem Cell Growth Media (Lonza). Cells between passage 3 and 6 were used for the experiments.
To image chondrogenic nodules, the cells were fixed using 4% formaldehyde (Electron Microscopy Sciences), and stained with 2 μg/mL Rhodamine B (Sigma-Aldrich) and 20 μM Nile Red (Sigma-Aldrich) [Johnson K., et. al, A Stem Cell-Based Approach to Cartilage Repair, Science, (2012). […] Number of nodules in each well was normalized to the average of 3 DMSO treated wells on the same plate using Excel (Microsoft Inc.). The normalized averages (fold change over DMSO) of 3 replicate wells for each compound concentration were calculated. Due to solubility limitations of some of the compounds, curve fitting was incomplete leading to inaccurate EC50 determinations.
Using TGF-β3 as a positive control, the concentration of representative compounds required to induce 50% levels of chondrogenesis is reported. In addition, the maximum activity of each compound and the respective dose that each compound reached maximum chondrogenesis activity is reported.

IL-6 in THP-1 cells = assay: IL-6 inhibition in LPS-stimulated THP-1 human monocyte cells (HTRF); settings: for pEC50: IL-6 inhibition, LPS-stimulated THP-1 cells, HTRF, 10-point dose-response starting from 10 μM; for inhibition at 10 µM: THP-1, read-out: percentage in parentheses beside EC50 >10
Experimental: Compound Screening: THP-1 cells were cultured in basal media with 1% FBS for 24 hours before the start of the assay. […] THP-1 cells were plated at 5000 cells/well in the 384-well plates and incubated at 37° C. for 2 h. 500 ng/mL of LPS was added after 2 hours and cells were incubated for another 22 hours at 37° C. Plates were spun in a centrifuge for 1 minute at […] and a mixture of anti-IL6 XL665, and anti-IL6 Cryptate diluted in reconstitution buffer (Cisbio Inc.) was added to each well. Following incubation for 3 hrs at room temperature, Homogeneous Time-Resolved Fluorescence (HTRF) was measured using the Envision (Perkin Elmer) at 665 nm and […]. The ratio of fluorescence at 665 nm to 620 nm was used as a readout for IL6 quantification. All samples were processed in duplicate. Readings were normalized to DMSO treated cells and normalized activities were utilized for EC50 calculations using the dose-response log (inhibitor) vs. response variable slope (four parameters) nonlinear regression feature available in GraphPad Prism 5.0 (or Dotmatics).

pEC50 [1]	pEC50 (SW480 colon cancer cells)	EC50 [3]	pEC50 (IL-6 in THP-1 cells)	Structure (SMILES)	pEC50 [2]	Emax [3]	inhibition at 10 µM [1]	inhibition at 10 µM (IL-6 in THP-1 cells)	inhibition at 10 µM (SW480 colon cancer cells)	inhibition at 10 µM [2]
6.57	6.20	300 nM	6.62	CCC(=O)Nc1cncc(-c2cnc3[nH]nc(-c4cc5c(-c6cccc(F)c6)nccc5[nH]4)c3c2)c1 [Compound 1, N-(5-(3-(4-(3-Fluorophenyl)-1H-pyrrolo[3,2-c]pyridin-2-yl)-1H-pyrazolo[3,4-b]pyridin-5-yl)pyridin-3-yl)propionamide]	6.22	114%	–	–	–	–
6.33	5.49	–	7.05	Fc1cccc(-c2nccc3[nH]c(-c4n[nH]c5ncc(-c6cccnc6)cc45)cc23)c1 [Compound 4, 3-(4-(3-Fluorophenyl)-1H-pyrrolo[3,2-c]pyridin-2-yl)-5-(pyridin-3-yl)-1H-pyrazolo[3,4-b]pyridine]	6.36	50%	–	–	–	–
6.24	6.11	–	6.69	CC(C)C(=O)Nc1cncc(-c2cnc3[nH]nc(-c4cc5c(-c6cccc(F)c6)nccc5[nH]4)c3c2)c1 [Compound 9, N-(5-(3-(4-(3-Fluorophenyl)-1H-pyrrolo[3,2-c]pyridin-2-yl)-1H-pyrazolo[3,4-b]pyridin-5-yl)pyridin-3-yl)isobutyramide]	6.21	29%	–	–	–	–
5.49	6.11	10 nM	5.19	CN(C)Cc1cncc(-c2cnc3[nH]nc(-c4cc5c(-c6cccc(F)c6)nccc5[nH]4)c3c2)c1 [Compound 13, 1-(5-(3-(4-(3-Fluorophenyl)-1H-pyrrolo[3,2-c]pyridin-2-yl)-1H-pyrazolo[3,4-b]pyridin-5-yl)pyridin-3-yl)-N,N-dimethylmethanamine]	5.61	110%	–	–	–	–
6.00	6.28	–	5.81	CC(C)CC(=O)Nc1cncc(-c2cnc3[nH]nc(-c4cc5c(-c6ccc(F)cc6)nccc5[nH]4)c3c2)c1 [Compound 30, N-(5-(3-(4-(4-Fluorophenyl)-1H-pyrrolo[3,2-c]pyridin-2-yl)-1H-pyrazolo[3,4-b]pyridin-5-yl)pyridin-3-yl)-3-methylbutanamide]	6.58	107%	–	–	–	–
6.01	6.26	–	5.49	CC(C)(C)C(=O)Nc1cncc(-c2cnc3[nH]nc(-c4cc5c(-c6ccc(F)cc6)nccc5[nH]4)c3c2)c1 [Compound 36, N-(5-(3-(4-(4-Fluorophenyl)-1H-pyrrolo[3,2-c]pyridin-2-yl)-1H-pyrazolo[3,4-b]pyridin-5-yl)pyridin-3-yl)pivalamide]	6.24	44%	–	–	–	–
5.80	6.27	10 nM	5.40	Fc1ccc(-c2nccc3[nH]c(-c4n[nH]c5ncc(-c6cncc(CN7CCCC7)c6)cc45)cc23)cc1 [Compound 42, 3-(4-(4-Fluorophenyl)-1H-pyrrolo[3,2-c]pyridin-2-yl)-5-(5-(pyrrolidin-1-ylmethyl)pyridin-3-yl)-1H-pyrazolo[3,4-b]pyridine]	6.14	105%	–	–	–	–
< 5.00	6.08	30 nM	< 5.00	CCCCC(=O)Nc1cncc(-c2cnc3[nH]nc(-c4cc5c(-c6ccc(F)cc6)nccc5[nH]4)c3c2)c1 [Compound 47, N-(5-(3-(4-(4-Fluorophenyl)-1H-pyrrolo[3,2-c]pyridin-2-yl)-1H-pyrazolo[3,4-b]pyridin-5-yl)pyridin-3-yl)pentanamide]	7.14	85%	46.9%	24.7%	–	–
< 5.00	< 5.00	–	< 5.00	CS(=O)(=O)NCc1cc(F)cc(-c2nccc3[nH]c(-c4n[nH]c5ncc(-c6cncc(CNCc7ccccc7)c6)cc45)cc23)c1 [Compound 500, N-(3-(2-(5-(5-((Benzylamino)methyl)pyridin-3-yl)-1H-pyrazolo[3,4-b]pyridin-3-yl)-1H-pyrrolo[3,2-c]pyridin-4-yl)-5-fluorobenzyl)methanesulfonamide]	< 5.00	–	19.1%	31.3%	23.4%	18.3%
5.41	5.35	–	5.46	Fc1cccc(-c2nccc3[nH]c(-c4n[nH]c5ncc(C6CCNCC6)cc45)cc23)c1 [Compound 505, 3-(4-(3-Fluorophenyl)-1H-pyrrolo[3,2-c]pyridin-2-yl)-5-(piperidin-4-yl)-1H-pyrazolo[3,4-b]pyridine]	5.26	–	–	–	–	–
5.40	5.45	–	5.14	c1cc2[nH]c(-c3n[nH]c4ncc(-c5cncc(OC6CCCCC6)c5)cc34)cc2c(N2CCCCC2)n1 [Compound 607, 5-(5-(Cyclohexyloxy)pyridin-3-yl)-3-(4-(piperidin-1-yl)-1H-pyrrolo[3,2-c]pyridin-2-yl)-1H-pyrazolo[3,4-b]pyridine]	5.70	–	–	–	–	–
< 5.00	< 5.00	–	< 5.00	CN1CCN(c2nccc3[nH]c(-c4n[nH]c5ncc(-c6cncc(NC(=O)CC7CCNCC7)c6)cc45)cc23)CC1 [Compound 641, N-(5-(3-(4-(4-Methylpiperazin-1-yl)-1H-pyrrolo[3,2-c]pyridin-2-yl)-1H-pyrazolo[3,4-b]pyridin-5-yl)pyridin-3-yl)-2-(piperidin-4-yl)acetamide]	< 5.00	–	0%	7.6%	6.5%	0%
6.11	5.61	–	< 5.00	Oc1cncc(-c2cnc3[nH]nc(-c4cc5c(-c6cccs6)nccc5[nH]4)c3c2)c1 [Compound 709, 5-(3-(4-(Thiophen-2-yl)-1H-pyrrolo[3,2-c]pyridin-2-yl)-1H-pyrazolo[3,4-b]pyridin-5-yl)pyridin-3-ol]	6.54	–	–	48.9%	–	–
